Key:
[1] = target: T1, adenylate cyclase (PTH receptor) in human SaOS-2/B10 cells (Homo sapiens, UniProt Q03431); assay: Adenylate cyclase assay, human osteosarcoma B10 cell line (SaOS-2/B10); type: cell-based; details: mean ± SEM, at least three experiments
T1 construct: endogenous in cells; host or cells: SaOS-2/B10 human osteosarcoma cells
T1 sequence (Q03431 27-593): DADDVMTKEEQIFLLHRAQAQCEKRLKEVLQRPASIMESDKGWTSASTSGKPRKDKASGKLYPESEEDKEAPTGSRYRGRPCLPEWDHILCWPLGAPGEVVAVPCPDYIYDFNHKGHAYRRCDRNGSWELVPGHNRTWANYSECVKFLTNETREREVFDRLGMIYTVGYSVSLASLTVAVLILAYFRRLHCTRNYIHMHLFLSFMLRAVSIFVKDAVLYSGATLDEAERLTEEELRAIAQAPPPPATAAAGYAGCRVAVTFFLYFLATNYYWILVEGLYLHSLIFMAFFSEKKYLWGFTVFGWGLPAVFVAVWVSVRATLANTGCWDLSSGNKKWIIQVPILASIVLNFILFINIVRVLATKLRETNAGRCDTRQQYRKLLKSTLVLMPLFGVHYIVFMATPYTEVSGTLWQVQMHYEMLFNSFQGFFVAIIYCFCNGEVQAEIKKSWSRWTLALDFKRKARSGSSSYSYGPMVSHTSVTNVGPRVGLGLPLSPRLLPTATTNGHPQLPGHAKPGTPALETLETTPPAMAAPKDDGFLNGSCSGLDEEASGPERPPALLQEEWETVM
Description: (§1) SaSO-2/B10 cells cultures. The details of maintenance of this cell line in culture were reported previously (see Chorev, M., et al., Intl. J. Peptide & Protein Res. 36, 465-470 (1990)).
(§2) PTH Receptor Binding and Adenylate Cyclase Assays. Kidney-based assays were performed with bovind renal cortical membranes following the procedures previously described (see Goldman, M. E., et al., Endocrinol. 123, 1468-1475 (1988)). Bone-based assays were performed with human SaOS-2/B10 cell cultures. Cyclic AMP was measured using the reported procedure (see Rodan, S. B., et al., J. Clin. Invest. 72, 1511-1515 (1983)), including modifications reported previously (see Chorev. M., et al., Intl. J. Peptide & Protein Res. 36, 465-470 (1990)). Receptor binding affinities for PTHrP analogs were obtained using cells plated in 24-wall dished in RPMI 1640 medium supplemented with 1% BSA, 20 mM HEPES, pH 7.5, and 0.1% azide. [Nle^8,^18, mono-^123 I-Tyr^4 ]bPTH(1-34)NH2 (50,000 cpm/well) was added to confluent monolayers in the absence or presence of varying amounts of analog in a final volume of 0.25 ml. Cultures were incubated at room temperature for 4 hours. Binding reactions were terminated by placing the cultures on ice and washing 4 times with ice cold phosphate buffered saline. Radioactivity associated with the cells was recovered by dissolving the cells in 1 ml of 1N NaOH.
(§3) Data analysis. Inhibition constants for binding (Kb) and adenylate cyclase (Kl) were calculated following a published method (see Cheng, Y. C., et al., Biochem. Pharmacol. 22, 3099-3108 (1973)).

PTH receptor [2] = target: T2, PTH receptor (Homo sapiens, UniProt Q03431); assay: PTH receptor binding, human osteosarcoma B10 cell line (SaOS-2/B10); details: inhibiting binding of 95 pM 125I-[Nle8,18,Tyr34]bPTH(1-34)NH2 (footnote a), mean ± SEM, at least three experiments, read-out: Binding Kb
T2 construct: endogenous in cells; host or cells: SaOS-2/B10 human osteosarcoma cells
T2 sequence (Q03431 27-593): T1 sequence (Q03431 27-593)
Description: as §1, §2, §3

[3] = target: T3, adenylate cyclase (PTH receptor) in bovine renal cortical membranes (Bos taurus, UniProt Q1LZF7); assay: Adenylate cyclase assay, bovine renal cortical membranes; type: biochemical; details: mean ± SEM, at least three experiments
T3 construct: from tissue; host or cells: bovine renal cortical membranes
T3 sequence (Q1LZF7 29-589): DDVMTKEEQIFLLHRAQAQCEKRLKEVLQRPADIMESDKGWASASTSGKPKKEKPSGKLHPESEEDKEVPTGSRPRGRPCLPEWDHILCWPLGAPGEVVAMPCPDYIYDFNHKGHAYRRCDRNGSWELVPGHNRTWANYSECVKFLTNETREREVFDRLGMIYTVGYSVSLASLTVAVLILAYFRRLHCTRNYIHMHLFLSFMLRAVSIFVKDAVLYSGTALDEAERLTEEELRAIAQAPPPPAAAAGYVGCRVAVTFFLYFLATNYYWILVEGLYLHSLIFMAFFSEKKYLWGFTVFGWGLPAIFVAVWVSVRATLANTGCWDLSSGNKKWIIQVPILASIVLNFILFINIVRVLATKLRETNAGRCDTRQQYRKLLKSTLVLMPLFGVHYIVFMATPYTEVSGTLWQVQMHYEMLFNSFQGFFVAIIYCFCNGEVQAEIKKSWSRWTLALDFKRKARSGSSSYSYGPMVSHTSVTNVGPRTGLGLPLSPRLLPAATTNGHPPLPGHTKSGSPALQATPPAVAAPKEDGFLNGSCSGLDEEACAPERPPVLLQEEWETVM
Description: as §2, §3

PTH receptor [4] = target: T4, PTH receptor (Bos taurus, UniProt Q1LZF7); assay: PTH receptor binding, bovine renal cortical membranes; details: inhibiting binding of 25 nM 125I-[Nle8,18,Tyr34]bPTH(1-34)NH2 (footnote c), mean ± SEM, at least three experiments, read-out: Binding Kb
T4 construct: from tissue; host or cells: bovine renal cortical membranes
T4 sequence (Q1LZF7 29-589): T3 sequence (Q1LZF7 29-589)
Description: as §2, §3

“[Cys^35 (S-2'-(N-succinyl-β-alanyl-3-iodotyramide)]PTHrP (1-35)NH2 [analog 1A]” showed a Km [1] of 0.5 ± 0.04 nM, a Ki (PTH receptor [2]) of 4.2 ± 0.7 nM and a Km [3] of 36 ± 7 nM. It also gave a Ki (PTH receptor [4]) of 14 ± 2 nM.

“Ac[Cys^8 (S-2'-(N-succinyl-β-alanyl-3-idotyramide), Leu^11, D-Trp^12 ]-PTHrP(8-34)NH2 [analog 2A]” was tested, and the Ki ([1]; antagonizing 0.25 nM [Nle8,18,Tyr34]bPTH(1-34)NH2 (footnote b)) was 2.8 ± 1 nM, the Ki (PTH receptor [2]) was 2.4 ± 0.5 nM and the Ki ([3]; antagonizing 3 nM [Nle8,18,Tyr34]bPTH(1-34)NH2 (footnote d)) was 22 ± 5 nM. The Ki (PTH receptor [4]) was 2 ± 0.1 nM.

For “[Nle^8,18,Lys^13 (ε-Biotinyl),Tyr^34,Cys^35 (S-2'-(N-succinyl-β-alanyl-3-iodotyramide)]bPTH(1-35)NH2 [analog 3A]”, the Km [1] was 0.5 ± 0.06 nM, the Ki (PTH receptor [2]) was 1.7 ± 0.2 nM and the Km [3] was 6.4 ± 0.7 nM. For the same substance, the Ki (PTH receptor [4]) was 2 ± 0.2 nM.

From patent US5242680A, “Thiol-reactive maleimido-based radiolabeling reagents” (Merck & Co., Inc., priority 1991, dated 1993)
